Key:
[1] = Preemergence herbicidal activity (% control) against monocot weeds; assay type: in vivo; conditions: pre-emergence, 336 h, average, about two weeks after application, read-out: Herbicidal activity (% control), preemergence, monocots; for activity at 2241.7 g/ha: 2 lb./A.; for activity at 4483.4 g/ha: 4 lb./A.
Source text: (§1) barnyardgrass (Echinochloa crusgalli) crabgrass (Digitaria spp.) nutsedge (Cyperus esculentus)
(§2) At 2 and 4 pounds per acre:
(§3) **Bermudagrass (Cynodon dactylon)
(§4) *downy brome (Bromus tectorum) foxtail (Setaria faberii)
(§5) Johnsongrass (Sorghum halepense) […]
(§6) quackgrass (Agropyron repens)
(§7) *ryegrass (Lolium perenne)
(§8) *wild oats (Avena factua)
(§9) *yellow millet (Panicum miliaceum)
(§10) The following test procedure is employed.

[2] = Postemergence herbicidal activity (% control) against monocot weeds; assay type: in vivo; conditions: post-emergence, 336 h, average, about two weeks after application, read-out: Herbicidal activity (% control), postemergence, monocots; for activity at 2241.7 g/ha: 2 lb./A.; for activity at 4483.4 g/ha: 4 lb./A.
Source text: as §1, §2, §3, §4, §5, §6, §7, §8, §9, §10

corn = test: Crop tolerance (selective herbicidal activity), corn; assay type: in vivo
Method: as §10
(§11) Following the general test procedure of Example 37, diphenyl ethers are evaluated for significant tolerance (as shown by 50% or less kill of the test crop at levels of application which give more than 50% kill of many or all of the weeds of Example 73) towards some or all of the following common agronomic crops (not all compounds tested against all crops): alfalfa, snapbeans, corn, cotton, cucumbers, peanuts, rape, rice, safflower, soybeans, tomatoes, and wheat.

peanuts = test: Crop tolerance (selective herbicidal activity), peanuts; assay type: in vivo
Method: as §10, §11

rice = test: Crop tolerance (selective herbicidal activity), rice; assay type: in vivo
Method: as §10, §11

soybeans = test: Crop tolerance (selective herbicidal activity), soybeans; assay type: in vivo
Method: as §10, §11

wheat = test: Crop tolerance (selective herbicidal activity), wheat; assay type: in vivo
Method: as §10, §11

[3] = Preemergence herbicidal activity (% control) against dicot weeds; conditions: pre-emergence, 336 h; for activity at 2241.7 g/ha: read-out: Herbicidal activity (% control), preemergence, dicots, 2 lb./A., average, about two weeks after application; for activity at 4483.4 g/ha: read-out: Herbicidal activity (% control), preemergence, dicots, 4 lb./A., average, about two weeks after application
[4] = Postemergence herbicidal activity (% control) against dicot weeds; conditions: post-emergence, 336 h; for activity at 2241.7 g/ha: read-out: Herbicidal activity (% control), postemergence, dicots, 2 lb./A., average, about two weeks after application; for activity at 4483.4 g/ha: read-out: Herbicidal activity (% control), postemergence, dicots, 4 lb./A., average, about two weeks after application
[5] = postemergence applications or applications on transplanted rice

## CCN(CC)c1cc(Oc2ccc(C(F)(F)F)cc2Cl)ccc1[N+](=O)[O-] [Example 21, 2-Chloro-α,α,α-trifluoro-p-tolyl-3-diethylamino-4-nitrophenyl ether]
[1]
  activity at 2241.7 g/ha: 79%
  activity at 4483.4 g/ha: 91%
[2]
  activity at 2241.7 g/ha: 90%
  activity at 4483.4 g/ha: 74%
corn; postemergence applications
  Tolerance to corn: Tolerance (significant tolerance (as shown by 50% or less kill of the test crop at levels of application which give more than 50% kill of many or all of the weeds of Example 73))
corn; preemergence applications
  Tolerance to corn: Tolerance (significant tolerance (as shown by 50% or less kill of the test crop at levels of application which give more than 50% kill of many or all of the weeds of Example 73))
peanuts; preemergence applications
  Tolerance to peanuts: Tolerance (significant tolerance (as shown by 50% or less kill of the test crop at levels of application which give more than 50% kill of many or all of the weeds of Example 73))
rice; preemergence applications
  Tolerance to rice: Tolerance (significant tolerance (as shown by 50% or less kill of the test crop at levels of application which give more than 50% kill of many or all of the weeds of Example 73))
soybeans; preemergence applications
  Tolerance to soybeans: Tolerance (significant tolerance (as shown by 50% or less kill of the test crop at levels of application which give more than 50% kill of many or all of the weeds of Example 73))
wheat; postemergence applications
  Tolerance to wheat: Tolerance (significant tolerance (as shown by 50% or less kill of the test crop at levels of application which give more than 50% kill of many or all of the weeds of Example 73))
[3]
  activity at 2241.7 g/ha: 90%
  activity at 4483.4 g/ha: 99%
[4]
  activity at 2241.7 g/ha: 94%
  activity at 4483.4 g/ha: 96%

## CCC(=O)Nc1cc(Oc2ccc(C(F)(F)F)cc2Cl)ccc1[N+](=O)[O-] [Example 34]
[1]
  activity at 2241.7 g/ha: 83%
  activity at 4483.4 g/ha: 35%
[2]
  activity at 2241.7 g/ha: 47%
  activity at 4483.4 g/ha: 32%
corn; postemergence applications
  Tolerance to corn: Tolerance (significant tolerance (as shown by 50% or less kill of the test crop at levels of application which give more than 50% kill of many or all of the weeds of Example 73))
corn; preemergence applications
  Tolerance to corn: Tolerance (significant tolerance (as shown by 50% or less kill of the test crop at levels of application which give more than 50% kill of many or all of the weeds of Example 73))
peanuts; postemergence applications
  Tolerance to peanuts: Tolerance (significant tolerance (as shown by 50% or less kill of the test crop at levels of application which give more than 50% kill of many or all of the weeds of Example 73))
peanuts; preemergence applications
  Tolerance to peanuts: Tolerance (significant tolerance (as shown by 50% or less kill of the test crop at levels of application which give more than 50% kill of many or all of the weeds of Example 73))
rice; [5]
  Tolerance to rice: Tolerance (significant tolerance (as shown by 50% or less kill of the test crop at levels of application which give more than 50% kill of many or all of the weeds of Example 73))
rice; preemergence applications
  Tolerance to rice: Tolerance (significant tolerance (as shown by 50% or less kill of the test crop at levels of application which give more than 50% kill of many or all of the weeds of Example 73))
soybeans; postemergence or layby applications
  Tolerance to soybeans: Tolerance (significant tolerance (as shown by 50% or less kill of the test crop at levels of application which give more than 50% kill of many or all of the weeds of Example 73))
soybeans; preemergence applications
  Tolerance to soybeans: Tolerance (significant tolerance (as shown by 50% or less kill of the test crop at levels of application which give more than 50% kill of many or all of the weeds of Example 73))
wheat; postemergence applications
  Tolerance to wheat: Tolerance (significant tolerance (as shown by 50% or less kill of the test crop at levels of application which give more than 50% kill of many or all of the weeds of Example 73))
wheat; preemergence applications
  Tolerance to wheat: Tolerance (significant tolerance (as shown by 50% or less kill of the test crop at levels of application which give more than 50% kill of many or all of the weeds of Example 73))
[3]
  activity at 2241.7 g/ha: 85%
  activity at 4483.4 g/ha: 52%
[4]
  activity at 2241.7 g/ha: 90%
  activity at 4483.4 g/ha: 89%

## CC(=O)Oc1cc(Oc2ccc(C(F)(F)F)cc2Cl)ccc1[N+](=O)[O-] [Example 18, 2-Chloro-α,α,α-trifluoro-p-tolyl-3-acetoxy-4-nitrophenylether]
[1]
  activity at 2241.7 g/ha: 99%
  activity at 4483.4 g/ha: 67%
[2]
  activity at 2241.7 g/ha: 28%
  activity at 4483.4 g/ha: 28%
corn; postemergence applications
  Tolerance to corn: Tolerance (significant tolerance (as shown by 50% or less kill of the test crop at levels of application which give more than 50% kill of many or all of the weeds of Example 73))
peanuts; postemergence applications
  Tolerance to peanuts: Tolerance (significant tolerance (as shown by 50% or less kill of the test crop at levels of application which give more than 50% kill of many or all of the weeds of Example 73))
rice; [5]
  Tolerance to rice: Tolerance (significant tolerance (as shown by 50% or less kill of the test crop at levels of application which give more than 50% kill of many or all of the weeds of Example 73))
soybeans; preemergence applications
  Tolerance to soybeans: Tolerance (significant tolerance (as shown by 50% or less kill of the test crop at levels of application which give more than 50% kill of many or all of the weeds of Example 73))
wheat; postemergence applications
  Tolerance to wheat: Tolerance (significant tolerance (as shown by 50% or less kill of the test crop at levels of application which give more than 50% kill of many or all of the weeds of Example 73))
wheat; preemergence applications
  Tolerance to wheat: Tolerance (significant tolerance (as shown by 50% or less kill of the test crop at levels of application which give more than 50% kill of many or all of the weeds of Example 73))
[3]
  activity at 2241.7 g/ha: 100%
  activity at 4483.4 g/ha: 100%
[4]
  activity at 2241.7 g/ha: 98%
  activity at 4483.4 g/ha: 86%

## CSCCOc1cc(Oc2ccc(C(F)(F)F)cc2Cl)ccc1[N+](=O)[O-] [Example 40]
[1]
  activity at 2241.7 g/ha: 88%
  activity at 4483.4 g/ha: 86%
[2]
  activity at 2241.7 g/ha: 81%
  activity at 4483.4 g/ha: 64%
corn; postemergence applications
  Tolerance to corn: Tolerance (significant tolerance (as shown by 50% or less kill of the test crop at levels of application which give more than 50% kill of many or all of the weeds of Example 73))
corn; preemergence applications
  Tolerance to corn: Tolerance (significant tolerance (as shown by 50% or less kill of the test crop at levels of application which give more than 50% kill of many or all of the weeds of Example 73))
peanuts; postemergence applications
  Tolerance to peanuts: Tolerance (significant tolerance (as shown by 50% or less kill of the test crop at levels of application which give more than 50% kill of many or all of the weeds of Example 73))
peanuts; preemergence applications
  Tolerance to peanuts: Tolerance (significant tolerance (as shown by 50% or less kill of the test crop at levels of application which give more than 50% kill of many or all of the weeds of Example 73))
rice; [5]
  Tolerance to rice: Tolerance (significant tolerance (as shown by 50% or less kill of the test crop at levels of application which give more than 50% kill of many or all of the weeds of Example 73))
rice; preemergence applications
  Tolerance to rice: Tolerance (significant tolerance (as shown by 50% or less kill of the test crop at levels of application which give more than 50% kill of many or all of the weeds of Example 73))
soybeans; preemergence applications
  Tolerance to soybeans: Tolerance (significant tolerance (as shown by 50% or less kill of the test crop at levels of application which give more than 50% kill of many or all of the weeds of Example 73))
wheat; preemergence applications
  Tolerance to wheat: Tolerance (significant tolerance (as shown by 50% or less kill of the test crop at levels of application which give more than 50% kill of many or all of the weeds of Example 73))
[3]
  activity at 2241.7 g/ha: 98%
  activity at 4483.4 g/ha: 92%
[4]
  activity at 2241.7 g/ha: 100%
  activity at 4483.4 g/ha: 100%

— patent US4419123A, “Herbicidal 4-trifluoromethyl-3'-carbon-substituted-4'-substituted diphenyl ethers” (Rohm and Haas Company, priority 1981, dated 1983)
